Measurements taken from the supplement of paper PMC10307832.

Columns and labels:
Assay in all cases: relative viability (nuclei count vs DMSO), 5 days (fraction); higher = more cells survive
[1] = compound: O=C(C[C@H]1NCCC[C@@H]1O)Cn1cnc2cc(Br)c(Cl)cc2c1=O (racemic) [Halofuginone] + CC(=O)Nc1cccc(-n2c(=O)n(C3CC3)c(=O)c3c(Nc4ccc(I)cc4F)n(C)c(=O)c(C)c32)c1 [Trametinib] (partner 0.02 µM)
How it was run: (§1)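 A single step with final 0.05% Triton X-100, 1% formaldehyde and 1 ug/ml Hoechst fixed the cells and stained nuclei 5 days after treatment. Lung cancer cell lines in 1536-well plates had been treated by pin tool the day after seeding with one drug alone or a fixed anchor-drug dose plus five library-drug doses (not always all listed) in √10 steps, and nuclei were counted on 4× images. Relative viability is the ratio of nuclei in treated wells to nuclei in vehicle wells, taken as the median of duplicate plates.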

Decitabine + Vorinostat = compound: Nc1ncn([C@H]2C[C@H](O)[C@@H](CO)O2)c(=O)n1 [Decitabine] + O=C(CCCCCCC(=O)Nc1ccccc1)NO [Vorinostat] (partner 1 µM)
How it was run: as §1

Halofuginone + Olaparib = compound: O=C(C[C@H]1NCCC[C@@H]1O)Cn1cnc2cc(Br)c(Cl)cc2c1=O (racemic) [Halofuginone] + O=C(c1cc(Cc2n[nH]c(=O)c3ccccc23)ccc1F)N1CCN(C(=O)C2CC2)CC1 [Olaparib] (partner 8 µM)
How it was run: as §1

Halofuginone + Dasatinib = compound: O=C(C[C@H]1NCCC[C@@H]1O)Cn1cnc2cc(Br)c(Cl)cc2c1=O (racemic) [Halofuginone] + Cc1nc(Nc2ncc(C(=O)Nc3c(C)cccc3Cl)s2)cc(N2CCN(CCO)CC2)n1 [Dasatinib] (partner 0.075 µM)
How it was run: as §1

Cell Line	relative viability ([1]; first compound 0.001 µM)	relative viability ([1]; first compound 0.003162 µM)	relative viability ([1]; first compound 0.01 µM)	relative viability ([1]; first compound 0.03162 µM)	relative viability ([1]; first compound 0.1 µM)	relative viability (Decitabine + Vorinostat; first compound 0.04 µM)	relative viability (Decitabine + Vorinostat; first compound 0.1265 µM)	relative viability (Decitabine + Vorinostat; first compound 0.4 µM)	relative viability (Decitabine + Vorinostat; first compound 1.265 µM)	relative viability (Decitabine + Vorinostat; first compound 4 µM)	relative viability (Halofuginone + Olaparib; first compound 0.001 µM)	relative viability (Halofuginone + Olaparib; first compound 0.003162 µM)	relative viability (Halofuginone + Olaparib; first compound 0.01 µM)	relative viability (Halofuginone + Olaparib; first compound 0.03162 µM)	relative viability (Halofuginone + Olaparib; first compound 0.1 µM)	relative viability (Halofuginone + Dasatinib; first compound 0.001 µM)	relative viability (Halofuginone + Dasatinib; first compound 0.003162 µM)	relative viability (Halofuginone + Dasatinib; first compound 0.01 µM)	relative viability (Halofuginone + Dasatinib; first compound 0.03162 µM)	relative viability (Halofuginone + Dasatinib; first compound 0.1 µM)
NCI-H2009	0.345	0.343	0.295	0.234	0.11	0.474	0.446	0.356	0.285	0.335	0.744	0.664	0.66	0.706	0.541	0.313	0.385	0.289	0.216	0.151
COR-L23	0.681	0.641	0.592	0.598	0.0948	0.258	0.259	0.184	0.132	0.126	0.349	0.348	0.346	0.292	0.171	0.617	0.481	0.535	0.311	0.083
NCI-H460	0.115	0.197	0.172	0.0823	0.022	0.669	0.64	0.293	0.214	0.0759	0.417	0.416	0.466	0.415	0.083	0.571	0.542	0.445	0.349	0.157
NCI-H522	0.734	0.753	0.791	0.777	0.633	0.898	0.684	0.562	0.505	0.54	0.621	0.665	0.631	0.672	0.628	0.894	0.863	1.06	0.806	0.881
LCLC-103H	0.659	0.682	0.666	0.661	0.658	0.653	0.81	0.628	0.511	0.561	0.794	0.779	0.778	0.747	0.737	0.551	0.423	0.472	0.48	0.388
HCC-827	0.591	0.524	0.515	0.575	0.433	0.143	0.32	0.303	0.243	0.287	0.673	0.588	0.667	0.631	0.599	0.249	0.415	0.31	0.493	0.359
NCI-H322M	0.512	0.441	0.513	0.479	0.423	0.715	0.792	0.816	0.61	0.664	0.821	0.535	0.781	0.624	0.5	0.27	0.26	0.251	0.208	0.212
NCI-H1666	0.944	0.852	0.79	0.865	0.68	0.943	1.05	0.922	0.894	0.836	0.758	0.785	0.714	0.789	0.705	0.812	0.802	0.753	0.766	0.664
